Molecular target: Thromboxane A2 receptor (Homo sapiens, UniProt P21731)
Sequence (P21731 as listed by the source): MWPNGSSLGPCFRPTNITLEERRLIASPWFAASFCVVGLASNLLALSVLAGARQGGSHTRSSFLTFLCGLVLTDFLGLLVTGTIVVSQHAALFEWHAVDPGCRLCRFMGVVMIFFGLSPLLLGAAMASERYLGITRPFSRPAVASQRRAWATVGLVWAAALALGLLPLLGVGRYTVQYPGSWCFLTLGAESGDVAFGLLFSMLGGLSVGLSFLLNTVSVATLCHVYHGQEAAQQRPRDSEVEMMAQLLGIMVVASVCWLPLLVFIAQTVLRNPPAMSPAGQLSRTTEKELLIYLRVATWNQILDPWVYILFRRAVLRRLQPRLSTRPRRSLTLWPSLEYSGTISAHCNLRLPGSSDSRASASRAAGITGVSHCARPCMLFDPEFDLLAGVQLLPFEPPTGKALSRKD

| Ki [nM] | SMILES |
| --- | --- |
| 3.1 | CCCCCNC(=O)NS(=O)(=O)c1cc([N+](=O)[O-])ccc1Nc1ccc(C)cc1 |
| 0.8 | Cc1ccc(Nc2ccc([N+](=O)[O-])cc2S(=O)(=O)NC(=O)NC(C)(C)C)cc1 [BM 573] |

Reference: BindingDB's records for doi:10.1124/jpet.104.079301 (University of Li&Eagrove;Ge, 2005)
